Measured values published in US11000033B2, “Ketone or oxime compound, and herbicide” (NISSAN CHEMICAL CORPORATION, priority 2014, dated 2021).

What was measured:
Type in all cases: in vivo
[1] = tested on: Lolium multiflorum Lam.; assay: Test Example 5: herbicidal effect by foliage application, plastic box (symbol K); details: 320 g/ha, 3 weeks after application
Procedure, shortened: (§1)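 Herbicide, formulated as an emulsion and diluted in water, is sprayed onto the aerial parts of 14-day seedlings. These were grown at 25° C. to 30° C. in sterilized diluvial soil; effects are graded after 3 weeks.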

[2] = tested on: Setaria viridis; assay: Test Example 4: herbicidal effect by soil treatment (symbol G); details: 320 g/ha
Procedure, shortened: (§2)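 Seeds were sown in sterilized diluvial soil, covered with about 1.5 cm of soil, and the soil surface was sprayed with a water-diluted emulsion of the compound at a predetermined rate. Plants grew in a greenhouse at 25° C. to 30° C.; effects were scored visually 3 weeks after application.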

[3] = tested on: soybean; assay: Test Example 4: effect on crop by soil treatment (symbol d); details: 320 g/ha
Procedure, shortened: (§3)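 Soil-treatment setup: crop and weed seeds were spot-sown into sterilized diluvial soil, then buried beneath approximately 1.5 cm of it, and the boxes were housed in a 25–30° C. greenhouse.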

[4] = tested on: wheat; assay: Test Example 4: effect on crop by soil treatment (symbol e); details: 320 g/ha
Procedure, shortened: as §3

[5] = tested on: Galium spurium; assay: Test Example 4: herbicidal effect by soil treatment (symbol Q); details: 320 g/ha
From the text: Herbicidal Effect Test by Soil Treatment
Sterilized diluvial soil was placed in a plastic box having a length of 21 cm, a width of 13 cm, and a depth of 7 cm. Each of the seeds of Digitaria ciliaris, Setaria viridis, Echinochloa crus-galli var. crus-galli, Avena fatua, Alopecurus myosuroides, Lolium multiflorum Lam., Apera spica-venti, Abutilon theophrasti, Amaranthus retroflexus, Chenopodium album, Stellaria media, Galium spurium, Veronica persica, corn, soybean, rice, wheat, beet, and rapeseed was sowed in a spot-like manner and was covered with the soil of a thickness of about 1.5 cm. Subsequently, the emulsion agent of the compound present invention prepared in accordance with Formulation Example 2 was diluted with water so as to be a predetermined herbicide amount and the diluted emulsion agent was uniformly applied to the surface of the soil with a small-size spray. The plastic box was placed in a greenhouse of 25° C. to 30° C. to grow plant. 3 weeks later from the herbicide application, the effect to each plant was investigated in accordance with the criteria of Test Example 1.

[6] = tested on: Echinochloa oryzacola Vasing.; assay: Test Example 1: herbicidal activity, application before weed generation in submerged conditions (symbol A); details: application herbicide amount 320 g/ha
Procedure, shortened: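 Greenhouse growth at 25–30 °C lasted 3 weeks after treatment, when each weed was graded 0–5 by herbicidal ratio. Treatment was a diluted emulsion applied to the water surface of 4 cm-submerged alluvial soil on the sowing day.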

[7] = tested on: Veronica persica; assay: Test Example 5: herbicidal effect by foliage application, plastic box (symbol R); details: 320 g/ha, 3 weeks after application
Procedure, shortened: as §1

[8] = tested on: Alopecurus myosuroides; assay: Test Example 4: herbicidal effect by soil treatment (symbol J); details: 320 g/ha
Procedure, shortened: as §2

[9] = tested on: corn; assay: Test Example 4: effect on crop by soil treatment (symbol c); details: 320 g/ha
Procedure, shortened: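 Plants are raised in a greenhouse (25° C. to 30° C.) from spot-sown seed, which sits under about 1.5 cm of sterilized diluvial soil in a box shared with weed species.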

[10] = tested on: Veronica persica; assay: Test Example 4: herbicidal effect by soil treatment (symbol R); details: 320 g/ha
Procedure, shortened: as §2

[11] = tested on: rice; assay: Test Example 4: effect on crop by soil treatment (symbol b); details: 320 g/ha
Procedure, shortened: as §3

[12] = tested on: soybean; assay: Test Example 5: effect on crop by foliage application, plastic box (symbol d); details: 320 g/ha, 3 weeks after application
Procedure, shortened: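 Box culture: sterile diluvial soil, seeds spot-sown, ~1.5 cm cover, raised under glass at 25–30° C.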

[13] = tested on: Avena fatua; assay: Test Example 5: herbicidal effect by foliage application, plastic box (symbol I); details: 320 g/ha, 3 weeks after application
Procedure, shortened: as §1

[14] = tested on: Lolium multiflorum Lam.; assay: Test Example 4: herbicidal effect by soil treatment (symbol K); details: 320 g/ha
Procedure, shortened: as §2

[15] = tested on: Alopecurus myosuroides; assay: Test Example 5: herbicidal effect by foliage application, plastic box (symbol J); details: 320 g/ha, 3 weeks after application
Procedure, shortened: as §1

[16] = tested on: Setaria viridis; assay: Test Example 5: herbicidal effect by foliage application, plastic box (symbol G); details: 320 g/ha, 3 weeks after application
Procedure, shortened: as §1

## CC(CC1CC(O)=C(c2c(C)cc(C)cc2C)C1=O)=NOCc1ccc(F)cc1 (centres unmarked) [1-136]
[1]
  K: Lolium multiflorum Lam., herbicidal effect (criteria 0-5): 5 (Herbicidal ratio of 90% or more (almost completely withered))
[2]
  G: Setaria viridis, herbicidal effect grade: 5 (Herbicidal ratio of 90% or more (almost completely withered))
[3]
  d: soybean, effect grade on crop: 0 (Herbicidal ratio of 5% or lower (almost no effect))
[4]
  e: wheat, effect grade on crop: 3 (Herbicidal ratio of 40% or higher and lower than 70%)
[5]
  Q: Galium spurium, herbicidal effect grade: 0 (Herbicidal ratio of 5% or lower (almost no effect))
[6]
  Herbicidal effect grade, A: Echinochloa oryzacola Vasing.: 5 (Herbicidal ratio of 90% or more (almost completely withered))
[7]
  R: Veronica persica, herbicidal effect (criteria 0-5): 2 (Herbicidal ratio of 20% or higher and lower than 40%)
[8]
  J: Alopecurus myosuroides, herbicidal effect grade: 5 (Herbicidal ratio of 90% or more (almost completely withered))
[9]
  c: corn, effect grade on crop: 0 (Herbicidal ratio of 5% or lower (almost no effect))
[10]
  R: Veronica persica, herbicidal effect grade: 0 (Herbicidal ratio of 5% or lower (almost no effect))
[11]
  b: directly sowed rice plant, effect grade on crop: 2 (Herbicidal ratio of 20% or higher and lower than 40%)
[12]
  d: soybean, effect on crop (criteria 0-5): 1 (Herbicidal ratio of 5% or higher and lower than 20%)
[13]
  I: Avena fatua, herbicidal effect (criteria 0-5): 4 (Herbicidal ratio of 70% or higher and lower than 90%)
[14]
  K: Lolium multiflorum Lam., herbicidal effect grade: 5 (Herbicidal ratio of 90% or more (almost completely withered))
[15]
  J: Alopecurus myosuroides, herbicidal effect (criteria 0-5): 5 (Herbicidal ratio of 90% or more (almost completely withered))
[16]
  G: Setaria viridis, herbicidal effect (criteria 0-5): 5 (Herbicidal ratio of 90% or more (almost completely withered))

## CC(CC1CC(O)=C(c2c(C)cc(C)cc2C)C1=O)=NOCc1ccc(Cl)cc1 (centres unmarked) [1-137]
[1]
  K: Lolium multiflorum Lam., herbicidal effect (criteria 0-5): 5 (Herbicidal ratio of 90% or more (almost completely withered))
[2]
  G: Setaria viridis, herbicidal effect grade: 5 (Herbicidal ratio of 90% or more (almost completely withered))
[3]
  d: soybean, effect grade on crop: 0 (Herbicidal ratio of 5% or lower (almost no effect))
[4]
  e: wheat, effect grade on crop: 0 (Herbicidal ratio of 5% or lower (almost no effect))
[5]
  Q: Galium spurium, herbicidal effect grade: 0 (Herbicidal ratio of 5% or lower (almost no effect))
[6]
  Herbicidal effect grade, A: Echinochloa oryzacola Vasing.: 5 (Herbicidal ratio of 90% or more (almost completely withered))
[7]
  R: Veronica persica, herbicidal effect (criteria 0-5): 2 (Herbicidal ratio of 20% or higher and lower than 40%)
[8]
  J: Alopecurus myosuroides, herbicidal effect grade: 5 (Herbicidal ratio of 90% or more (almost completely withered))
[9]
  c: corn, effect grade on crop: 0 (Herbicidal ratio of 5% or lower (almost no effect))
[10]
  R: Veronica persica, herbicidal effect grade: 0 (Herbicidal ratio of 5% or lower (almost no effect))
[11]
  b: directly sowed rice plant, effect grade on crop: 5 (Herbicidal ratio of 90% or more (almost completely withered))
[12]
  d: soybean, effect on crop (criteria 0-5): 0 (Herbicidal ratio of 5% or lower (almost no effect))
[13]
  I: Avena fatua, herbicidal effect (criteria 0-5): 5 (Herbicidal ratio of 90% or more (almost completely withered))
[14]
  K: Lolium multiflorum Lam., herbicidal effect grade: 5 (Herbicidal ratio of 90% or more (almost completely withered))
[15]
  J: Alopecurus myosuroides, herbicidal effect (criteria 0-5): 5 (Herbicidal ratio of 90% or more (almost completely withered))
[16]
  G: Setaria viridis, herbicidal effect (criteria 0-5): 5 (Herbicidal ratio of 90% or more (almost completely withered))
